Laboratory results from ChEMBL document CHEMBL5375999, “Discovery of a Dual Tubulin and Neuropilin-1 (NRP1) Inhibitor with Potent In Vivo Anti-Tumor Activity via Pharmacophore-based Docking Screening, Structure Optimization, and Biological Evaluation” (J Med Chem, 2023).
pIC50: −log10 of the molar value. Activity calls are given as the source filed them. The calls are words filed in the database; no cut-off is given here.

Experiments:
[1] = target: Vascular endothelial growth factor receptor 1 (Homo sapiens, UniProt P17948); test: Inhibition of VEGFR1 (unknown origin)
Vascular endothelial growth factor receptor 1, sequence (P17948 whole entry): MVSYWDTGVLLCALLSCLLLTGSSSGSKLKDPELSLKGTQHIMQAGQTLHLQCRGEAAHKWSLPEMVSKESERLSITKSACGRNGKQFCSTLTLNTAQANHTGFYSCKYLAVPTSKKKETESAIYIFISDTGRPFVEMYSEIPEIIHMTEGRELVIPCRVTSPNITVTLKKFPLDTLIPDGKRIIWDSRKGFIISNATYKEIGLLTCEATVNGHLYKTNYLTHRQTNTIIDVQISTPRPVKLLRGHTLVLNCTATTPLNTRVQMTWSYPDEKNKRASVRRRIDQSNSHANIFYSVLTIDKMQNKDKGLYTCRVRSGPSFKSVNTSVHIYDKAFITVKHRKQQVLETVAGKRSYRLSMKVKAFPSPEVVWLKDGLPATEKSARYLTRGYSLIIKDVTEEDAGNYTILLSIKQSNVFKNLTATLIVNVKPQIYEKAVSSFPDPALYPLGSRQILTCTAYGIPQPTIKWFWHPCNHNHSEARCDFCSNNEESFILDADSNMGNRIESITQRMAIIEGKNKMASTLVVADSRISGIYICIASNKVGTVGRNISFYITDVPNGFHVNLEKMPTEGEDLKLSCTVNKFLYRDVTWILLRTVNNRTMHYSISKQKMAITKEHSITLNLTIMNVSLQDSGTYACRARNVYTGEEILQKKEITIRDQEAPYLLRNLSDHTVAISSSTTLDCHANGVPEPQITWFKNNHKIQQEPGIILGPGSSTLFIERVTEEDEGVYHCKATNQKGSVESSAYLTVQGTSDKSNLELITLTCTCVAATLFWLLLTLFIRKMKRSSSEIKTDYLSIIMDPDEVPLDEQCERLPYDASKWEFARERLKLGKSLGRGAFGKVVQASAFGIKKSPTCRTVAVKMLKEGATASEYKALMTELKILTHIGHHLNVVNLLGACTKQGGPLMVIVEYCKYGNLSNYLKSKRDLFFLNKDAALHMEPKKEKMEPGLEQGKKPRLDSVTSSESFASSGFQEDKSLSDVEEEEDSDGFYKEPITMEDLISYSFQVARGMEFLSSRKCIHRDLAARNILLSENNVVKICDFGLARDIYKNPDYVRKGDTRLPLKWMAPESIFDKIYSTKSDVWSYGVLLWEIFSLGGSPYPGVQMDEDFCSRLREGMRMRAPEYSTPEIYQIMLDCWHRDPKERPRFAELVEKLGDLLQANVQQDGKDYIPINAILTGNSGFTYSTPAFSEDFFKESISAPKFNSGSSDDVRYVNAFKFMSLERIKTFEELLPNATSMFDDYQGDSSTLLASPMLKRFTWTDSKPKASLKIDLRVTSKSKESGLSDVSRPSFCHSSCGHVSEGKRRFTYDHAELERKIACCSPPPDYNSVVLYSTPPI

[2] = target: T1, Vascular endothelial growth factor receptor 2 (Homo sapiens, UniProt P35968); test: Inhibition of VEGFR2 (unknown origin)
T1 sequence (P35968 whole entry): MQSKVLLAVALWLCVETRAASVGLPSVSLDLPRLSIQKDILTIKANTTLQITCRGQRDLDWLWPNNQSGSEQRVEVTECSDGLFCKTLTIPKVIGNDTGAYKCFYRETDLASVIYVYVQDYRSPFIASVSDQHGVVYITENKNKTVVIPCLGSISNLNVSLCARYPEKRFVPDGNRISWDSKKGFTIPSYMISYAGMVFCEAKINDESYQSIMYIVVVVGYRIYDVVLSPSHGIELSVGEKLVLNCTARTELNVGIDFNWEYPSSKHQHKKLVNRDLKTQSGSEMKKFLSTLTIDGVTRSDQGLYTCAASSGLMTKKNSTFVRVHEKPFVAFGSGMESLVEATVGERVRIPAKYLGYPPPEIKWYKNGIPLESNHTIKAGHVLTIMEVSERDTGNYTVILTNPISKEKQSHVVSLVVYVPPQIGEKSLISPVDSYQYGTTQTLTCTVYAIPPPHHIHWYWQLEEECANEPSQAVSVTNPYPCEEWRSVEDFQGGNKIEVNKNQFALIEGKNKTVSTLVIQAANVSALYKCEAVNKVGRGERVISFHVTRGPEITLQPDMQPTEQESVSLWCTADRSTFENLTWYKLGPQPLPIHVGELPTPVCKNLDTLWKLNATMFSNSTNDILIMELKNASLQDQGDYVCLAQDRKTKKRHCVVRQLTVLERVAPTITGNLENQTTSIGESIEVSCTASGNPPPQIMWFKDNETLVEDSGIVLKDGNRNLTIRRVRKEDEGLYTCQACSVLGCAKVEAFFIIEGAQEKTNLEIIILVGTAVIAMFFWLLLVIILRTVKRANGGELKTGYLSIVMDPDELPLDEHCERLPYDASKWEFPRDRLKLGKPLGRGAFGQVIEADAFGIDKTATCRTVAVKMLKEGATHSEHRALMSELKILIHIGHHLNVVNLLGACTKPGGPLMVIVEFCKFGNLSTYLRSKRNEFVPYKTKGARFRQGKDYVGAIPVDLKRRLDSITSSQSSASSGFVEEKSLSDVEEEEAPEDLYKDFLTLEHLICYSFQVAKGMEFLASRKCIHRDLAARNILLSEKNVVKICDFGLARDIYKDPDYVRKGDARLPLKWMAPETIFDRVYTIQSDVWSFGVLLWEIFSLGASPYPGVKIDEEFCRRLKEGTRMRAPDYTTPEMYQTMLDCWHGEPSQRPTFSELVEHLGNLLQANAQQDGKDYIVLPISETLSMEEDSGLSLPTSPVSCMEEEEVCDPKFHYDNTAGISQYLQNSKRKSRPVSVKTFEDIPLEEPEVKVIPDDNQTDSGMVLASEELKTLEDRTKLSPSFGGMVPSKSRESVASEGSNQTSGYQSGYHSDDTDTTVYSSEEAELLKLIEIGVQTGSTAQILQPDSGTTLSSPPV

[3] = target: AP2-associated protein kinase 1 (Homo sapiens, UniProt Q2M2I8); test: Inhibition of AAK1 (unknown origin)
[4] = target: Atypical kinase COQ8B, mitochondrial (Homo sapiens, UniProt Q96D53); test: Inhibition of ADCK4 (unknown origin)
Atypical kinase COQ8B, mitochondrial, sequence (Q96D53 whole entry): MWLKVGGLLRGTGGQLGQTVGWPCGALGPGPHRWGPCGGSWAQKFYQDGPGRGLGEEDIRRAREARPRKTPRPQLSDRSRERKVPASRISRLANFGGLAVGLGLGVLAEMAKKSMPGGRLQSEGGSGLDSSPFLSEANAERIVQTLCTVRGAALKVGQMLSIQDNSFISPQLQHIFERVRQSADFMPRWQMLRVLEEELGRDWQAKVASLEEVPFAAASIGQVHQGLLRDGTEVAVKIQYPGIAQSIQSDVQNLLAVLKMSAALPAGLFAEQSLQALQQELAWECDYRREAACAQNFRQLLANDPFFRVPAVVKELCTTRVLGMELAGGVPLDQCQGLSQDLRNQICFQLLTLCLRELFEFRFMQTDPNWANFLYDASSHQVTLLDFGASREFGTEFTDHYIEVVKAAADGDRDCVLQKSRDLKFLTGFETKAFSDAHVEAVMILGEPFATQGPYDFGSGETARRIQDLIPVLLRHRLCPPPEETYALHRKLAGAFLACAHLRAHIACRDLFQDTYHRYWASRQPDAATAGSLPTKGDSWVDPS

[5] = target: Tyrosine-protein kinase Blk (Homo sapiens, UniProt P51451); test: Inhibition of BLK (unknown origin)
[6] = target: Cytoplasmic tyrosine-protein kinase BMX (Homo sapiens, UniProt P51813); test: Inhibition of BMX (unknown origin)
Cytoplasmic tyrosine-protein kinase BMX, sequence (P51813 whole entry): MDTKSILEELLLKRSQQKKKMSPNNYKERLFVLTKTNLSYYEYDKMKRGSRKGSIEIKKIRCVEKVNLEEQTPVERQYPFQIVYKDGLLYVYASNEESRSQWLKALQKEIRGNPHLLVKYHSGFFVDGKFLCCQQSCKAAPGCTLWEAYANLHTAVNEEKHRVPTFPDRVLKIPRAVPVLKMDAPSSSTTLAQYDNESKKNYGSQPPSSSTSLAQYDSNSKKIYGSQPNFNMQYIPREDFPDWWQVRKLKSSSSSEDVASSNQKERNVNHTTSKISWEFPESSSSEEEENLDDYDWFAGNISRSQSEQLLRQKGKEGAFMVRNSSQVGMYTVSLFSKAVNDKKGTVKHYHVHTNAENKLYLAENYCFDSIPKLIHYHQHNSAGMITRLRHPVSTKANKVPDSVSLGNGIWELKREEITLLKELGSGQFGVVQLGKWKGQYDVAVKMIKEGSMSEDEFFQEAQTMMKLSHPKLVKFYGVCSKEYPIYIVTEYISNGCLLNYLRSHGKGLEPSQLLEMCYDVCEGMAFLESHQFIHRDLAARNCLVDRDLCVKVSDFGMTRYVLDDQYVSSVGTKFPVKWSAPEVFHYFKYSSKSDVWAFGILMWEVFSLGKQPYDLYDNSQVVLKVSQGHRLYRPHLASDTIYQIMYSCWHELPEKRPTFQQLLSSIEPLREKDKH

[7] = target: Cyclin-dependent kinase 3 (Homo sapiens, UniProt Q00526); test: Inhibition of CDK3 (unknown origin)
[8] = target: Cyclin-dependent kinase 7 (Homo sapiens, UniProt P50613); test: Inhibition of CDK7 (unknown origin)
Cyclin-dependent kinase 7, sequence (P50613 whole entry): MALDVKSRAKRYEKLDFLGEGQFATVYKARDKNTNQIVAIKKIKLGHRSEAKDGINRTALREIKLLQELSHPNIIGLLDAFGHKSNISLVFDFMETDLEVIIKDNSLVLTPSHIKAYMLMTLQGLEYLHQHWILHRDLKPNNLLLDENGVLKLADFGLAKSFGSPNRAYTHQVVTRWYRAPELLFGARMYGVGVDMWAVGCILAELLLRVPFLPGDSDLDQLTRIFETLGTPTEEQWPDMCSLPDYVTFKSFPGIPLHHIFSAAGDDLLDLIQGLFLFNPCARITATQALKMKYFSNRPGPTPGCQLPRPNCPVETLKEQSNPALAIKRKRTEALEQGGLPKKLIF

[9] = target: Cyclin-dependent kinase 8 (Homo sapiens, UniProt P49336); test: Inhibition of CDK8 (unknown origin)
[10] = target: STE20-like serine/threonine-protein kinase (Homo sapiens, UniProt Q9H2G2); test: Inhibition of SLK (unknown origin)
[11] = target: Epidermal growth factor receptor (Homo sapiens, UniProt P00533); test: Inhibition of EGFR (unknown origin)
[12] = target: Focal adhesion kinase 1 (Homo sapiens, UniProt Q05397); test: Inhibition of FAK (unknown origin)
[13] = target: Cyclin-G-associated kinase (Homo sapiens, UniProt O14976); test: Inhibition of GAK (unknown origin)
[14] = target: Tyrosine-protein kinase HCK (Homo sapiens, UniProt P08631); test: Inhibition of HCK (unknown origin)
[15] = target: Mitogen-activated protein kinase 8 (Homo sapiens, UniProt P45983); test: Inhibition of JNK1 (unknown origin)
[16] = target: Serine/threonine-protein kinase MAK (Homo sapiens, UniProt P20794); test: Inhibition of MAK (unknown origin)
Serine/threonine-protein kinase MAK, sequence (P20794 whole entry): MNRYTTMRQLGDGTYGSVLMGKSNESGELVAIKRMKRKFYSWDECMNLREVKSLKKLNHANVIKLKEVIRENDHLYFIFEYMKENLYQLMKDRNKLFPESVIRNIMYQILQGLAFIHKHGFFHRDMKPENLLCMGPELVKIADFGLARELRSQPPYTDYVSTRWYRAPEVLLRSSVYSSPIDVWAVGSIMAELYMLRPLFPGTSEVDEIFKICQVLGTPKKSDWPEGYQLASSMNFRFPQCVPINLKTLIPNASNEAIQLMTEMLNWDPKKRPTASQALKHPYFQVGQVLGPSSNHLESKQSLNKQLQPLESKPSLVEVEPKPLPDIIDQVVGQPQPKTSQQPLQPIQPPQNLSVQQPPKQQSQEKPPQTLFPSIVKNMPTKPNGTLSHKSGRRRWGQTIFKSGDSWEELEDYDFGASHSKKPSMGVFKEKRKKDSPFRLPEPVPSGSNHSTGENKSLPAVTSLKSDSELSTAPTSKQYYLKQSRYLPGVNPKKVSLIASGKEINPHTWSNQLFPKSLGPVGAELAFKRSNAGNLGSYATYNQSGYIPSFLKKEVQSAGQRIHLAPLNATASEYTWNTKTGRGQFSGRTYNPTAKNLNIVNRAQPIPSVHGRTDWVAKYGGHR

[17] = target: RAF proto-oncogene serine/threonine-protein kinase (Homo sapiens, UniProt P04049); test: Inhibition of RAF1 (unknown origin)
[18] = target: T2, Tubulin (Homo sapiens) (UniProt P68371+Q9H4B7+P0DPH7+P68366+Q13509+Q71U36+P04350+Q3ZCM7+P07437+P68363+Q9BQE3+Q6PEY2+Q13885+Q9BVA1+Q9BUF5); test: Inhibition of tubulin polymerization in human PC-3 cells assessed as cell shrinkage at 0.1 to 12.5 uM incubated for 48 hrs by immunofluorescence assay; type: cell-based; conditions: dose 0.1-12.5 µM
[19] = target: T2, Tubulin (Homo sapiens); test: Inhibition of tubulin polymerization in human PC-3 cells assessed as appearance of blurred nucleus at 2.5 to 12.5 uM incubated for 48 hrs by immunofluorescence assay; type: cell-based; conditions: dose 2.5-12.5 µM
[20] = target: T2, Tubulin (Homo sapiens); test: Inhibition of tubulin polymerization in human PC-3 cells assessed as nucleus disappearance at 2.5 to 12.5 uM incubated for 48 hrs by immunofluorescence assay; type: cell-based; conditions: dose 2.5-12.5 µM
[21] = Cytotoxicity against human PrEC cells assessed as inhibition of cell viability incubated for 48 hrs by MTT assay; type: toxicity, cell-based
[22] = tested on: PC-3; test: Induction of cell cycle arrest in human PC-3 cells assessed as S phase cells at 2.5 uM by flow cytometry analysis (reference value: 2%); type: functional
[23] = tested on: PC-3; test: Induction of cell cycle arrest in human PC-3 cells assessed as S phase cells at 12.5 uM by flow cytometry analysis (reference value: 2%); type: functional
[24] = tested on: PC-3; test: Induction of apoptosis in human PC-3 cells assessed as late apoptotic cells at 0.1 uM by Annexin-V FITC staining based flow cytometry analysis (reference value: 1.67%); type: functional
[25] = tested on: PC-3; test: Induction of apoptosis in human PC-3 cells assessed as viable cells at 0.5 uM by Annexin-V FITC staining based flow cytometry analysis (reference value: 96.8%); type: functional; conditions: read-out: Activity
[26] = tested on: PC-3; test: Induction of apoptosis in human PC-3 cells assessed as necrotic cells at 0.5 uM by Annexin-V FITC staining based flow cytometry analysis (reference value: 0.059%); type: functional
[27] = tested on: PC-3; test: Induction of apoptosis in human PC-3 cells assessed as necrotic cells at 2.5 uM by Annexin-V FITC staining based flow cytometry analysis (reference value: 0.059%); type: functional
[28] = tested on: PC-3; test: Induction of apoptosis in human PC-3 cells assessed as viable cells at 12.5 uM by Annexin-V FITC staining based flow cytometry analysis (reference value: 96.8%); type: functional; conditions: read-out: Activity
[29] = tested on: PC-3; test: Induction of apoptosis in human PC-3 cells assessed as late apoptotic cells at 12.5 uM by Annexin-V FITC staining based flow cytometry analysis (reference value: 1.67%); type: functional
[30] = tested on: PC-3; test: Induction of apoptosis in human PC-3 cells assessed as increase in cleaved PARP expression at 0.5 to 12.5 uM incubated for 48 hrs by Western blotting analysis; type: functional, cell-based; conditions: dose 0.5-12.5 µM
[31] = tested on: PC-3; test: Induction of apoptosis in human PC-3 cells assessed as increase in cleaved caspase-3 expression at 0.5 to 12.5 uM incubated for 48 hrs by Western blotting analysis; type: functional, cell-based; conditions: dose 0.5-12.5 µM
[32] = tested on: PC-3; test: Antiangiogenesis activity in human PC-3 cells assessed as reduction in network formation by interconnected cells at 0.1 to 12.5 uM incubated for 8 to 15 hrs by matrigel based inverted microscopic analysis; type: functional, cell-based; conditions: dose 0.1-12.5 µM, time 8-15 hrs
[33] = tested on: HUVEC; test: Antimigratory activity against HUVECs at 0.1 to 12.5 uM incubated for 24 to 48 hrs by wound healing assay; type: functional, cell-based; conditions: Homo sapiens, dose 0.1-12.5 µM, time 24-48 hrs
[34] = target: T1, Vascular endothelial growth factor receptor 2; test: Inhibition of VEGF-induced VEGFR2 signal pathway in HUVECs assessed as reduction in p-VEGFR2 level; type: cell-based; conditions: HUVEC, dose 0.1-12.5 µM
[35] = Toxicity in BALB/c mouse xenografted with human PC-3 cells assessed as change in heart morphology at 5 to 10 mg/kg, ip administered every 4 days for 20 days by H and E staining based inverted microscopic assay; type: organism-based; conditions: in vivo, 480 h, dose 5-10 mg/kg, time 20 day
[36] = Toxicity in BALB/c mouse xenografted with human PC-3 cells assessed as change in spleen morphology at 5 to 10 mg/kg, ip administered every 4 days for 20 days by H and E staining based inverted microscopic assay; type: organism-based; conditions: in vivo, 480 h, dose 5-10 mg/kg, time 20 day
[37] = Toxicity in BALB/c mouse xenografted with human PC-3 cells assessed as change in lung morphology at 5 to 10 mg/kg, ip administered every 4 days for 20 days by H and E staining based inverted microscopic assay; type: organism-based; conditions: in vivo, 480 h, dose 5-10 mg/kg, time 20 day
[38] = Half life in Sprague-Dawley rat at 1.5 mg/kg, po measured upto 24 hrs by LC-MS/MS analysis; type: ADME, organism-based; conditions: in vivo
[39] = Cmax in Sprague-Dawley rat at 1.5 mg/kg, po measured upto 24 hrs by LC-MS/MS analysis; type: ADME, organism-based; set-up: time < 24 hrs, dose 1.5 mg/kg, route po; conditions: in vivo
[40] = Tmax in Sprague-Dawley rat at 1.5 mg/kg, po measured upto 24 hrs by LC-MS/MS analysis; type: ADME, organism-based; conditions: in vivo

COc1ccc(/C=C\c2cc(OC)c(OC)c(OC)c2)cc1NC(=O)CCC(=O)N[C@@H](CCCNC(=N)N)C(=O)O
pIC50 [1]: < 5.00 | pIC50 [2]: < 5.00 | pIC50 [3]: < 5.00 | pIC50 [4]: < 5.00 | pIC50 [5]: < 5.00 | pIC50 [6]: < 5.00 | pIC50 [7]: < 5.00 | pIC50 [8]: < 5.00 | pIC50 [9]: < 5.00 | pIC50 [10]: < 5.00 | pIC50 [11]: < 5.00 | pIC50 [12]: < 5.00 | pIC50 [13]: < 5.00 | pIC50 [14]: < 5.00 | pIC50 [15]: < 5.00 | pIC50 [16]: < 5.00 | pIC50 [17]: < 5.00 | inhibition [18]: Active | inhibition [19]: Active | inhibition [20]: Active | IC50 at 48 h [21]: > 10 µM | Activity [22]: 3.67% | Activity [23]: 34.85% | Activity [24]: 4.49% | viability at 0.5 µM [25]: 91.6% | Activity [26]: 0.12% | Activity [27]: 0.16% | viability at 12.5 µM [28]: 89.4% | Activity [29]: 6.04% | Activity [30]: Active | Activity [31]: Active | Activity [32]: Active | Activity [33]: Active | inhibition [34]: Dose-Dependent Effect | Activity [35]: Non-Toxic | Activity [36]: Non-Toxic | Activity [37]: Non-Toxic | half-life [38]: 828 min | Cmax [39]: 1330 ng/mL | Tmax [40]: 30 min
